Data: PubChem BioAssay (NCI)
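The compound was tested at five concentrations on cells cultured in 96-well plates, with a 48-hour exposure period. TGI is the concentration that stops growth completely.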

Columns and labels:
Assay in all cases: inhibition of tumour cell growth, NCI panel, 48 h
[1] = tested on: SR leukemia
[2] = tested on: SW-620 colon
[3] = tested on: IGROV1 ovarian
[4] = tested on: CCRF-CEM leukemia
[5] = tested on: MALME-3M melanoma
[6] = tested on: HOP-62 NSCLC
[7] = tested on: A498 renal
[8] = tested on: RXF 393 renal
[9] = tested on: EKVX NSCLC
[10] = tested on: COLO 205 colon
[11] = tested on: SK-OV-3 ovarian
[12] = tested on: SNB-19 CNS
[13] = tested on: T-47D breast
[14] = tested on: MCF7 breast
[15] = tested on: U251 CNS
[16] = tested on: M14 melanoma
[17] = tested on: UACC-62 melanoma
[18] = tested on: MOLT-4 leukemia
[19] = tested on: UACC-257 melanoma
[20] = tested on: HCC-2998 colon
[21] = tested on: HCT-15 colon
[22] = tested on: HCT-116 colon
[23] = tested on: SK-MEL-28 melanoma
[24] = tested on: NCI/ADR-RES ovarian
[25] = tested on: SF-295 CNS
[26] = tested on: UO-31 renal
[27] = tested on: NCI-H460 lung
[28] = tested on: DU-145 prostate
[29] = tested on: OVCAR-8 ovarian
[30] = tested on: HL-60(TB) leukemia
[31] = tested on: HOP-92 NSCLC
[32] = tested on: OVCAR-4 ovarian
[33] = tested on: PC-3 prostate
[34] = tested on: TK-10 renal
[35] = tested on: BT-549 breast
[36] = tested on: SF-539 CNS
[37] = tested on: KM12 colon
[38] = tested on: ACHN renal
[39] = tested on: SNB-75 CNS
[40] = tested on: K-562 leukemia
[41] = tested on: LOX IMVI melanoma
[42] = tested on: RPMI-8226 leukemia
[43] = tested on: HT29 colon
[44] = tested on: SF-268 CNS
[45] = tested on: MDA-MB-435
[46] = tested on: SN12C renal
[47] = tested on: A549 NSCLC
[48] = tested on: SK-MEL-2 melanoma
[49] = tested on: NCI-H226 lung
[50] = tested on: OVCAR-3 ovarian
[51] = tested on: NCI-H23 lung
[52] = tested on: SK-MEL-5 melanoma
[53] = tested on: HS 578T breast
[54] = tested on: OVCAR-5 ovarian
[55] = tested on: CAKI-1 renal
[56] = tested on: 786-0 renal
[57] = tested on: MDA-MB-231 breast

Measured: TGI

CSc1ncc2c(C#N)c3n(C)c4ccccc4n3c(=O)c2n1
> 100 µM: all assays above
